In US8093216B2, “Method of treating cancer by inhibition of p95HER-2 production” (Oregon Health & Science University, priority 1998, dated 2012):
“Also recorded” adds a separate entry of the source.

Legend:
HER-2/neu ECD = test: Shedding of HER-2/neu ECD into conditioned media, Western blot with anti-neu (N), BT474 cells; type: cell-based, human
Method: Cells were treated for 24 hrs in serum-free medium with control vehicle or with 500 nM of the phorbol ester TPA and 50 μM chloroquine. In the top panel (FIG. 4A), 5 ml of conditioned media was concentrated 100 fold, denatured under nonreducing conditions, and aliquots normalized to cell extract protein were analyzed by western blotting with anti-neu (N) monoclonal antibody at 1 μg/ml. In the lower panel (FIG. 4B), 20 μg of cell proteins were analyzed by Western blotting using anti-neu (C). The data shown in FIG. 4 are representative of three replicate experiments.
(§1) BT474 cells in serum-free medium were treated for 24 hrs with the control vehicle or with 1, 10, 20, and 40 μM TAPI (a gift from Immunex, Seattle, Wash.). In the top panel (FIG. 5A), the concentrated, conditioned media, normalized to the amount of cell extract, were analyzed by western blotting with anti-neu (N). […] In the lower panel (FIG. 5B), 20 μg of cell proteins were analyzed by Western blotting using anti-neu (C).
Tyrosine phosphorylation of tyrosine kinase receptors generally indicates their activation in signaling (Hynes et al., Biochem. Biophys. Acta 1198:165-184, 1994; and Dougall et al., Oncogene 9: 2109-2123, 1994). The tyrosine phosphorylation of p95HER-2, and its subcellular location were examined by fractionation of BT474 cell extracts into a soluble fraction and a particulate fraction. Each fraction was immunoprecipitated with anti-neu (C) and then subjected to Western blot analysis using monoclonal antibodies against phosphotyrosine. […]
To determine whether p95HER-2 and ECD were coordinately regulated, TPA (500 nM) and chloroquine (50 μM) or the control vehicle were added to the culture media of BT474 and SKOV3 cells. […] At 24 hrs, the ECD levels in the extracellular media and p95HER-2 levels in the cell extract were analyzed. […]

p95HER-2 [1] = test: Cell level of truncated p95HER-2, Western blot of cell extracts with anti-neu (C), BT474 cells; type: cell-based, human
Method: as §1, with “(C). […]” for “(C).”
Therefore, effects of different concentrations of the hydroxamic acid, TAPI (Mohler et al., Nature 370:218-220, 1994) was tested on shedding of HER-2/neu ECD and on cell levels of p95.

p185HER-2/neu = p185HER-2/neu level in treated cells, Western blot with anti-neu (C); type: cell-based, human; details: cells treated with TAPI
Method: BT474 cells in serum-free medium were treated for 24 hrs with the control vehicle or with 1, 10, 20, and 40 μM TAPI (a gift from Immunex, Seattle, Wash.). In the top panel (FIG. 5A), the concentrated, conditioned media, normalized to the amount of cell extract, were analyzed by western blotting with anti-neu (N). Similar results were obtained when 5 μg of protein from the conditioned media from each culture were analyzed.
This example illustrates that a metalloprotease inhibitor depressed levels of p95HER-2 and ECD from BT474 cells. Shedding of diverse transmembrane proteins is inhibited by hydroxamic acid-based compounds, which are potent metalloproteinase inhibitors (McGeehan et al., Nature 370:561, 1994; Mohler et al., Nature 370:218-220, 1994; and Arribas et al., J. Biol. Chem. 271:11376-11382, 1996). Therefore, effects of different concentrations of the hydroxamic acid, TAPI (Mohler et al., Nature 370:218-220, 1994) was tested on shedding of HER-2/neu ECD and on cell levels of p95. TAPI (0 to 40 μM) was added to cultured BT474 cells for 24 hrs, the ECD in concentrated conditioned media was analyzed by immunoblotting with anti-neu (N), and p95HER-2 and p185HER-2 polypeptides were examined in cell extracts using an anti-neu (C) monoclonal antibody. […] A residual amount of about 10% of the ECD resisted inhibition by even 40 μM TAPI.

p95HER-2 [2] = test: p95HER-2 level in a further, unnamed cell line treated with TAPI; type: cell-based
[3] = 1 μM TAPI, three separate experiments
[4] = BT474 cells, 24 hrs, 1, 10, 20 and 40 μM TAPI

TAPI
inhibition of ECD level (HER-2/neu ECD; [3]): ≤ 50%
effect on ECD level (HER-2/neu ECD; [4]): inhibited; also recorded: suppressed
production of ECD at 1 μM TAPI (HER-2/neu ECD; BT474 cells, serum-free medium, 24 hrs, 1 μM): partially inhibited
inhibition of p95HER-2 level (p95HER-2 [1]; [3]): ≤ 50%
level of truncated p95HER-2 at 1 μM TAPI (p95HER-2 [1]; BT474 cells, 24 hrs, 1 μM): little or no effect
effect on p95HER-2 level (p95HER-2 [1]; [4]): inhibited; also recorded: suppressed
change in p185HER-2/neu levels (p185HER-2/neu): No change
effect on p95HER-2 in a cell line (p95HER-2 [2]): increased
